Results published in patent US6960300B2, “Process for preparing water soluble diterpenes and their applications” (Sami Labs Limited, priority 2003, dated 2005).
Converted amounts (≈) assume the structure as drawn.

Key:
[1] = Solubility of Forskolin / Isoforskolin in water containing cyclodextrin (HPLC of filtered solution); format: physicochemical
Description: To solubilize Forskolin using cyclodextrins, the chosen cyclodextrin and Forskolin are mixed in water in specific proportions. The aqueous solution is filtered to remove any undissoved particles to obtain a clear aqueous solution of Forskolin in water.
Forskolin (98.5% assay, 25 mg) was added to 1 ml water containing in the dissolved state 500 mg Hydroxy propyl β cyclodextrin, HPBCD, (˜50%) Suspension was agitated at 75 RPM in an isothermal shaker for 60 hours at temperature ˜30° C.
Forskolin (98.5% assay, 50 mg) was added to 1 ml water containing 500 mg Hydroxy propyl γ-cyclodextrin in the dissolved state. (HPGCD) (˜50%). Suspension was agitated at 75 RPM in an isothermal shaker for 60 hours at temperature ˜30° C.
Experiments were performed by “changing” the crystallinity of Forskolin by recrystallizing from methylene chloride and from ethyl acetate. Resulting “amorphous” Forskolin was used for complexation with Hydroxyropyl γ-cyclodextrin HPGCD. Forskolin (29.3 mg) recrystallized with methylene dichloride (Forskolin assay 99.0%) was added to 3 ml water containing 1.5 gram Hydroxy propyl γ-cyclodextrin, HPGCD (˜50%). Suspension was agitated at 75 RPM in an isothermal shaker for 160 hour at temperature 30° C.
Forskolin (30.3 mg) recrystallized with ethyl acetate (Forskolin assay 98.8%) was added to 3 ml water containing 1.5 gram Hydroxy propyl γ-cyclodextrin, HPGCD (˜50%). Suspension was agitated at 75 RPM in an isothermal shaker for 160 hour at temperature 30° C.
Forskolin (98.5% assay, 330 mg) was added to 10 ml water containing 4 g of RAMEBCD (˜40%). Suspension was agitated at 75 RPM in an isothermal shaker for 40 hours at temperature 30° C.
Solubility of Forskolin in water was determined at the different concentrations of RAMEBCD ranging from 5 to 66%.
A typical aqueous formulation of Forskolin with a cyclodextrin is prepared as follows, RAMEBCD, being used as the example of cyclodextrin RAMEBCD (100 g) is taken in a one liter flask with mechanical or magnetic stirring facility. Forskolin (5.5 g) was charged into the flask. Water (400 ml) is charged to the flask and the contents were agitated at room temperature. A clear solution is obtained. If any undissolved Forskolin particles are seen, they are resuspended and stirred. Benzalkonium chloride (50 mg) and Disodium EDTA (500 mg) are added and dissolved in the flask. The pH of the contents could be adjusted to the desired range with the help of 0.1N sodium hydroxide. (usually pH range 3.5 to 7.5). Calculated amount of sodium chloride solution is added to maintain the osmolarity of the solution equivalent to that of 0.9% sodium chloride. The total volume of the solution is made up to 500 ml after sterile filtration. A solution thus prepared has approximately 1% of Forskolin in the dissolved state. Other cyclodextrins also could be used and depending on the cyclodextrin used, the dissolved content of Forskolin in water differed.
Isoforskolin also could be used in place of Forskolin. In one preparation, Isoforskolin (50 mg) was suspended in water containing a suitable amount of a cyclodextrin, for example, R AMEBCD (20 g) in about 100 ml water.

[2] = polyvinylpyrrolidone and polyethyleneglycol-glyceryl tririicinoleate, U.S. Pat. No. 6,346,273; cited from earlier work
[3] = Dissolution in water of Forskolin-RAMEBCD residue obtained by evaporating acetone; format: physicochemical; conditions: Forskolin 50 mg + RAMEBCD 1 gram from acetone, residue in 5 ml water
Description: Alternatively, the cyclodextrin and Forskolin in certain proportions are dissolved in a suitable solvent such as ethanol or acetone or ethyl acetate. The solvent is removed to leave behind a white powder. Such powder freely dissolves in water as the examples will illustrate. Further, additives to the aqueous solution of Forskolin can also be added. These additives are usually used for maintaining sterility, pH maintenance, maintenance of osmolarity etc.
Forskolin (50 mg) was dissolved in 5 ml acetone, and 1 gram of RAMEBCD was dissolved in 5 ml acetone separately. Both the solutions were mixed together and solvent acetone was evaporated under reduced pressure. Residue was dried and dissolved in 5 ml water. This residue dissolved very easily within 1 hour of stirring forming a clear colorless solution.

[4] = Determination of the aqueous solubility of Forskolin (intrinsic solubility, HPLC); format: physicochemical
Description: Determination of the aqueous solubility of Forskolin. Forskolin (300 mg) was dried at 105° C. for 6 hours. Dried Forskolin 200 mg was stirred with 100 ml water for 48 hours for the determination of intrinsic solubility at ambient temperatureResulting solution was filtered through 0.45 μm nylon filter and analyzed for the content of Forskolin by HPLC.

[5] = test system: Intraocular pressure (IOP), ocular hypertension; test: Anti-glaucoma activity: intraocular pressure (IOP) in rabbits with betamethasone-induced ocular hypertension, non-contact tonometer; format: in vivo, Albino rabbit (New Zealand strain); conditions: for IOP Readings, right eye (treated): average of 6 determinations
Description: An illustrative example of the biological activity of the preparation is presented. The anti-glaucoma activity of the forskolin composition was studied in albino rabbits. A 1% solution of Forskolin in water as described in example 8 was used for the experiments
Study design: Animal model: Albino rabbit Number of groups: 4 Number of animals in each group: 6 in treatment group and 2 in control group
Materials and methods: Six albino rabbits of New Zealand strain, of both sexes, weighing […] were chosen. The rabbits were housed in clean and well-ventilated open space. Each rabbit was fed with standard diet daily and water was administered ad libitum throughout the study.
Ocular hypertension was induced by the method reported by Bonomi et al (Invest Ophthalmol. 1976 September; 15(9):781-4.) The rabbits were given 0.3 ml subconjunctival injection of Betnesol containing betamethasone sodium 4 mg/ml, every day to each eye for a period of three weeks (the Intraocular pressure (IOP) at third week was maximum as per literature). Local anesthetic propracaine eye drops were used prior to subconjunctival injections.
In each rabbit the left eye was kept as control for glaucoma and the right eye was treated for glaucoma using Forskolin, Timolol, and the placebo.
For each treatment, the IOP readings were measured at intervals of 30 minutes up to 210 minutes using the non-contact tonometer (NCT).

[6] = 25° C.; cited from earlier work

SMILES | IOP Readings, right eye (treated) ([5]; time 0 mins) [mmHg] | IOP Readings, right eye (treated) ([5]; time 30 mins) [mmHg] | IOP Readings, right eye (treated) ([5]; time 60 mins) [mmHg] | IOP Readings, right eye (treated) ([5]; time 90 mins) [mmHg] | IOP Readings, right eye (treated) ([5]; time 120 mins) [mmHg] | IOP Readings, right eye (treated) ([5]; time 150 mins) [mmHg] | IOP Readings, right eye (treated) ([5]; time 180 mins) [mmHg] | IOP Readings, right eye (treated) ([5]; time 210 mins) [mmHg] | other results
C=C[C@@]1(C)CC(=O)[C@]2(O)[C@@]3(C)[C@@H](O)CCC(C)(C)[C@@H]3[C@H](O)[C@H](OC(C)=O)[C@@]2(C)O1 [Forskolin] | 14 | 7 | 6.5 | 4.5 | 5 | 6 | 7 | 7.5 | % Forskolin w/v (solubility in water) ([1]; 5% RAMEBCD): 0.09 % w/v; % Forskolin w/v (solubility in water) ([1]; 10% RAMEBCD): 0.272 % w/v; % Forskolin w/v (solubility in water) ([1]; 15% RAMEBCD): 0.767 % w/v; % Forskolin w/v (solubility in water) ([1]; 20% RAMEBCD): 1.15 % w/v; % Forskolin w/v (solubility in water) ([1]; 40% RAMEBCD): 2.746 % w/v; % Forskolin w/v (solubility in water) ([1]; 53.28% RAMEBCD): 4.165 % w/v; % Forskolin w/v (solubility in water) ([1]; 66.6% RAMEBCD): 5.029 % w/v; Forskolin in the dissolved state in the aqueous formulation ([1]; Example 8 formulation: RAMEBCD 100 g, Forskolin 5.5 g, made up to 500 ml, room temperature): approximately 1%; Maximum solubility of Forskolin achieved [2]: 0.2%; Time of stirring for the residue to dissolve in water forming a clear colorless solution [3]: ≤ 1 h; Concentration of Forskolin solution in water in the absence of cyclodextrin ([4]; no cyclodextrin): about 0.001%; Content of Forskolin by HPLC (intrinsic solubility in water) ([4]; stirred 48 hours, ambient temperature, 0.45 μm filtered): 0.001 % w/v; solubility at 48 h ([4]; thermodynamic from solid, water, stirred 48 hours, ambient temperature, 0.45 μm filtered, read-out: Content of Forskolin by HPLC (intrinsic solubility in water)): 10 µg/mL (≈ 24.4 µM); Anti-glaucoma activity (conclusion) ([5]; 1% solution of Forskolin in water as in example 8): anti-glaucoma activity comparable to Timolol
C=C[C@@]1(C)CC(=O)[C@@]2(O)[C@](C)(O1)[C@@H](O)[C@@H](OC(C)=O)C1C(C)(C)CC[C@H](O)[C@@]12C (some centres unmarked) [Isoforskolin] | – | – | – | – | – | – | – | – | Isoforskolin present in filtered solution by HPLC ([1]; RAMEBCD (20 g) in about 100 ml water, room temperature): approximately 0.5%
CC(C)(C)NC[C@H](O)COc1nsnc1N1CCOCC1 [Timolol] | 13 | 8 | 7 | 5 | 4 | 3.5 | 4.5 | 6 | –
OC[C@H]1O[C@@H]2O[C@H]3[C@H](O)[C@@H](O)[C@@H](O[C@H]4[C@H](O)[C@@H](O)[C@@H](O[C@H]5[C@H](O)[C@@H](O)[C@@H](O[C@H]6[C@H](O)[C@@H](O)[C@@H](O[C@H]7[C@H](O)[C@@H](O)[C@@H](O[C@H]8[C@H](O)[C@@H](O)[C@@H](O[C@H]9[C@H](O)[C@@H](O)[C@@H](O[C@H]%10[C@H](O)[C@@H](O)[C@@H](O[C@H]1[C@H](O)[C@H]2O)O[C@@H]%10CO)O[C@@H]9CO)O[C@@H]8CO)O[C@@H]7CO)O[C@@H]6CO)O[C@@H]5CO)O[C@@H]4CO)O[C@@H]3CO [δ-cyclodextrin] | – | – | – | – | – | – | – | – | Water solubility [6]: 8.19 g/100 ml
